{"source": "patent US5519007A", "about": "“Lysosphingolipid derivatives” (Fidia, S.p.A., priority 1988, dated 1996)", "key": {"[1]": {"assay": "Neurotoxicity of the compounds themselves in culture in the absence of glutamate", "format": "cell-based, Sprague-Dawley rats", "conditions": "rat, cerebellar granule cells; 24 hours, absence of glutamate; read-out: Neurotoxicity in 24 hours (ED50)", "experimental": "(§1) The following experiments show studies carried out with N-dichloroacetylsphingosine, in comparison to sphingosine. In particular, their effects on PKC translocation and glutamate-induced neuronal toxicity in primary granule cell cultures were observed. Possible cytotoxic effects of the products were assessed according to their neurotoxic effects in cerebellar cells in culture, as well as hemolysis.\n(§2) Primary cultures were prepared with granule cells from 8-day-old Sprague-Dawley rats (Zivic Miller). These cultures have a granule cell content of >90%, 5% of GABAergic neurons [Gallo V. et al., Proc. Natl. Acad. Sci. USA 79, 7919-7923 (1982)] and <5% of glia cells [Vaccarino F. M. et al., J. Neurosci. 7, 65-76 (1987)]. The cultures were used for the experiments on the 8th and 9th days in vitro.\n(§3) On the 8th and 9th days in vitro, sphingosines and N-dichloroacetylsphingosines at various concentrations (1-100μM) were added to the cultures. In particular, monolayers of granule cells were pre-incubated with these compounds in Locke's solution (1 ml) for 2 hrs at 37° C. The sphingosine was dissolved in ethanol, stored as an equimolar complex with bovine serum albumin (BSA) with no fatty acids, and diluted directly with the Locke's solution used to preincubate the cells. The N-dichloroacetylsphingosine was dissolved in DMSO and diluted directly in Locke's solution (as noted above). Aliquots of the dilutions were dried in a flow of N2, after which Locke's solution was added until the desired concentration was reached.\n(§4) Possibile cytotoxicity of the compounds themselves was calculated by assessing the toxicity in the […] cultures in the absence of glutamate. The experiments and techniques used were those described above, with the difference that glutamate was omitted. The possible hemolytic effects of the compounds were also assessed. Samples of blood were taken from 4 volunteers. Each sample was subdivided into three test tubes as follows: […]"}, "protein-kinase C (PKC)": {"test_system": "protein-kinase C (PKC)", "assay": "Glutamate-induced PKC translocation, [3H]-P(BtO)2 bond in intact primary cerebellar granule cells", "format": "cell-based, Sprague-Dawley rats", "conditions": "for IC50: 2 h pre-incubation at 37° C., 1 μM glutamate, absence of Mg2+, read-out: PKC inhibition (ED50), glutamate-induced PKC translocation", "method": "Translocation of PKC can be measured by assessment of the bond sites of 4-B-[3H]-phorbol 12,13-dibutyrate [3H]-P(Bt02) in intact cells.\n(§5) Primary cultures were prepared with granule cells from 8-day-old Sprague-Dawley rats (Zivic Miller). […] The cultures were used for the experiments on the 8th and 9th days in vitro.\nAfter 2 hours' incubation at 37° C. of the cells with or without the compounds (see above), the monolayers were washed once and the [^3 H]-P(BtO2) bond was assessed in the presence of 1 μM of glutamate and in the absence of Mg^2 +. […] Preliminary experiments have shown that balance is reached within 10 minutes, so the monolayers were incubated with [^3 H]-P(Bt0)2 for 15 minutes at 22° C. […] After incubation, the cells were washed three times with cold Locke's solution, and then suspended with 0.1M NaOH. Aliquots of the suspension were then used for protein determination (9) and liquid scintillation count. The nonspecific bond was determined in the presence of 2 μM phorbol 12-tetradecanoate 13-acetate (PTA)."}, "blood": {"test_system": "blood", "assay": "Hemolysis in blood of volunteers (cyanomethahemoglobin method)", "format": "cell-based, human (volunteers)", "conditions": "45 minutes at 37° C., various concentrations, vs plasma negative control; FIGURE"}, "PKC [2]": {"test_system": "PKC", "conditions": "literature (Hannun, Merril, Wilson); cited from earlier work"}, "[3H]-P(Bt02) bond": {"test_system": "[3H]-P(Bt02) bond", "conditions": "literature; cited from earlier work"}, "[3]": {"test_system": "glutamate high affinity recognition site", "conditions": "literature; cited from earlier work"}, "PKC [4]": {"test_system": "PKC", "conditions": "granule cells; Vaccarino et al. 1987; cited from earlier work"}, "granule cells": {"test_system": "granule cells", "conditions": "literature; cited from earlier work"}, "[5]": {"test_system": "cerebellar cells in culture", "assay": "Neurotoxicity of the compounds themselves in culture in the absence of glutamate", "format": "cell-based, Sprague-Dawley rats", "conditions": "compared with concentrations antagonizing PKC translocation and neuronal toxicity induced by glutamate", "experimental": "as §1, §2, §3, §4"}, "[6]": {"test_system": "primary granule cell cultures", "assay": "Protection from glutamate-induced neuronal toxicity in primary granule cell cultures", "format": "cell-based, Sprague-Dawley rats", "method": "as §5\nMonolayers of intact granule cells were pre-incubated with various compounds at various concentrations for 2 hours at 37° C. […] Cell survival was assessed by histochemical techniques after 24 hours. In particular, cell viability was assessed after fluorescein staining, which gives green fluorescence to vital cells and red fluorescence to nonvital ones."}}, "data": [{"compound": "CCCCCCCCCCCCC/C=C/[C@@H](O)[C@@H](N)CO", "note": "[Sphingosine]", "values": [{"measurement": "CC50 at 24 h", "setting": "[1]", "result": "10 to 20", "unit": "µM"}, {"measurement": "IC50", "setting": "protein-kinase C (PKC)", "result": 20, "unit": "µM"}, {"measurement": "Hemolysis", "setting": "blood", "result": "contrary to sphingosine, does not cause hemolysis"}, {"measurement": "Effect on activity and translocation of PKC", "setting": "PKC [2]", "result": "inhibit the activity and translocation of PKC"}]}, {"compound": "trisialosyl-N-tetra-glycosylceramide [GT1b]", "values": [{"measurement": "Interference with the [3H]-P(Bt02) bond", "setting": "[3H]-P(Bt02) bond", "result": "do not interfere with the glutamate bond up to its high affinity recognition site or with the [3H]-P(Bt02) bond"}, {"measurement": "Interference with the glutamate bond at its high affinity recognition site", "setting": "[3]", "result": "do not interfere with the glutamate bond up to its high affinity recognition site"}, {"measurement": "Effect on glutamate-induced translocation and activation of PKC", "setting": "PKC [4]", "result": "inhibits the translocation and activation of PKC induced by glutamate"}, {"measurement": "Protection from glutamate-induced cell damage", "setting": "granule cells", "result": "offer protection from glutamate-induced cell damage"}]}, {"compound": "monosialosyl-N-tetra-glycosylceramide [GM1]", "values": [{"measurement": "Interference with the [3H]-P(Bt02) bond", "setting": "[3H]-P(Bt02) bond", "result": "do not interfere with the glutamate bond up to its high affinity recognition site or with the [3H]-P(Bt02) bond"}, {"measurement": "Interference with the glutamate bond at its high affinity recognition site", "setting": "[3]", "result": "do not interfere with the glutamate bond up to its high affinity recognition site"}, {"measurement": "Effect on glutamate-induced translocation and activation of PKC", "setting": "PKC [4]", "result": "inhibits the translocation and activation of PKC induced by glutamate"}, {"measurement": "Protection from glutamate-induced cell damage", "setting": "granule cells", "result": "offer protection from glutamate-induced cell damage"}]}, {"compound": "CCCCCCCCCCCCC/C=C/[C@@H](O)[C@H](CO)NC(=O)C(Cl)Cl", "note": "[N-dichloroacetylsphingosine, N-DICHLOROACETYL SPHINGOSINE]", "values": [{"measurement": "CC50 at 24 h", "setting": "[1]", "result": "> 100", "unit": "µM"}, {"measurement": "Neurotoxicity of the compound itself (in words)", "setting": "[5]", "result": "either no toxicity at all, or toxicity at significantly higher concentrations than those able to antagonize translocation induced by glutamate (column 1) as well as the neuronal toxicity induced by glutamate"}, {"measurement": "Inhibition of glutamate-induced PKC translocation (in words)", "setting": "protein-kinase C (PKC)", "result": "inhibited glutamate-induced PKC translocation"}, {"measurement": "IC50", "setting": "protein-kinase C (PKC)", "result": 30, "unit": "µM"}, {"measurement": "Hemolysis", "setting": "blood", "result": "does not cause hemolysis"}, {"measurement": "Reduction of cell toxicity induced by glutamate (in words)", "setting": "[6]; 50 μM glutamate", "result": "significantly reducing cell toxicity induced by glutamate"}, {"measurement": "EC50", "setting": "[6]; Rattus norvegicus, 2 h pre-incubation at 37° C., 50 μM glutamate 15 min without Mg2+, survival after 24 hours, read-out: Protection from glutamate (ED50), neuronal toxicity induced by glutamate", "result": 30, "unit": "µM"}]}]}
